Results from patent US20020061509A1, “Screening assay for the identification of agents which alter expression of PTH-rP” (Osteo Screen, priority 1996, published 2002).

How the values were obtained:
PTH-rP promoter = assay: PTH-rP promoter-firefly luciferase reporter assay in stably transfected MDA-MB-231 cells (Clone 30); format: cell-based, human; conditions: concentration of 3.2 μM
Description: To perform studies on the PTH-rP promoter in whole cells, a human breast cancer cell line, MDA-MB-23 1 (kindly provided by C. Kent Osborne, San Antonio Tex.) and a human lung cancer cell line, RWGT2, were employed. Various PTH-rP promoters, described in Wysolmerski et al., 1996, were linked with the reporter gene firefly luciferase and stably transfected into cell lines. Plasmid constructs included pGL3B-PTH-rP1.1 and pGL4B-PTHrP 4.0. RWGT2 cells and MDA-MB-231 cells were cultured in DMEM (Life Technologies, Grand Island, N.Y.) with 10% FCS (Hyclone, Logan, Utah), 0.1% penicillin/streptomycin and 0.1% nonessential amino acids (Gibco) in 37° C. atmosphere of 5% CO2 /air.
Before stable transfection of MDA-MB-231 cells with pGL3B-PTH-rP1.1, the concentration of geneticin (G418) required to kill MDA 231 cells was determined to be 500 μg/ml. […]
Sucloning consisted of diluting the geneticin resistant MDA-MB-2311 cells containing pGL3B-PTHrP1.1 to a concentration of 0.3 cells/100 μl. […] The luciferase activity was assessed by luminometer. […] Routinely, 20 μl of cell lysate was mixed with 100 μl of luciferase assay reagent (270 μM co-enzyme A, 470 μM luciferin and 530 μM ATP) and the luciferase activity was measured for 10 seconds in a Turner TD-20e luminometer. […] The protein concentration was assessed using BioRed reagents. […]

[1] = system: RWGT2 cells (human squamous cell carcinoma of the lung); assay: Hypercalcemia study: nude mice inoculated with RWGT2 cells; format: in vivo, BALB/c nude mice
Description: Compounds which are identified as regulating PTH-rP production were initially tested for their capacity to inhibit hypercalcemia in vivo by injecting tumor cells into nude mice and treating the mice with the potential inhibitory compounds. Specifically, compounds to be tested were injected into the subcutaneous tissue, intramuscularly, or intravenously into nude mice which were also inoculated with the human cancer cells which produce PTH-rP. The effects on the capacity of the tumor cells to cause hypercalcemia are then assessed over 2-4 weeks.
The tumor, designated RWGT2, is a human squamous cell carcinoma of the lung that was obtained from a hypercalcemic cancer patient (Guise et al, 1993). Metastatic tumor tissue was taken at the time of surgical repair of a pathologic fracture of the femur and implanted into athymic nude mice. The mice developed hypercalcemia, tumors, and increased serum PTH-rP concentrations. Tumor tissue from the mice was used to establish this cell line in culture. The cells produced PTH-rP in culture and reliably produced tumors and hypercalcemia when inoculated intramuscularly into the nude mice.
The RWGT2 cells are grown in culture in T75 flasks in α-minimal essential medium (αMEM, Hazelton Biologics Inc., Lenexa, Kans.) with 10% fetal calf serum and passaged twice a week. The mice are inoculated with RWGT2 cells by subcutaneous inoculation of 1×10^6 cells into the right flank of the upper leg.
All animal studies are conducted in accordance with the NIH Guide for the Care and Use of Laboratory Animals. Male BALB/c nude mice (Harlen), 4-6 weeks of age, are housed in a laminar flow isolator hood with a 12-hour-light/12-hour-dark cycle. Water, supplemented with multivitamins (Lymphomed, Melrose Park, Ill.) and autoclaved mouse chow (Ralston-Purina, St. Louis, Mo.) were provided ad libitum.
Weekly, the mice (each group n=5) are weighed and tumor diameters (long axis and mean axis width) are measured using calipers. Also whole blood samples for ionized calcium (Ca^2+) determination is obtained by retro-orbital puncture under anesthesia and measured using a Ciba Corning 634 ISE Ca^++/pH analyzer. Finally, blood samples for PTH-rP measurements is obtained by retro-orbital puncture and collected on ice, into pediatric vacutainer tubes containing ethylenediamine tetraacetate (EDTA) (Becton Dickinson, Rutherford, N.J.) and aprotinin (Sigma Chemical Company, St. Louis, Mo.), 400KIU/ml and stored at −70° C. Immunoreactive PTH-rP is measured using a 2 site IRMA kit available from Nichols Institute (San Juan Capistrano, Calif.).
For all experiments compound is administered when hypercalcemia is evident (treatment phase) or from the time of inoculation of RWGT2 cells (prevention phase).

[2] = system: MDA-MB-231 cells (human breast cell carcinoma); assay: Osteolytic bone metastases study: nude mice inoculated with MDA-MB-231 cells into the left ventricle; format: in vivo, BALB/c nude mice; conditions: 50 mg/kg/day; vs vehicle alone
Description: Compounds which are identified as regulating PTH-rP production were initially tested for their capacity to inhibit bone metastases in vivo by injecting tumor cells into nude mice and treating the mice with the potential inhibitory compounds. Specifically, compounds to be tested were injected into the subcutaneous tissue, intramuscularly, or intravenously into nude mice which were also inoculated with the human cancer cells which produce PTH-rP. The effects on the capacity of the tumor cells to cause osteolytic bone lesions are then assessed over 2-4 weeks.
The tumor, named MDA-MB-231, is a human breast cell carcinoma. […]
Weekly, the mice are weighed and whole blood samples for ionized calcium (Ca^2+) determination are obtained by retro-orbital puncture under anesthesia and measured using a Ciba Coming 634 ISE Ca^++/pH analyzer.
The number of osteolytic bone metastases is determined on radiographs as described by Nakai (1992). […] The area of osteolytic bone metastases is calculated using a computerized image analysis system in which examination of osteolytic lesions from radiographs is achieved using a fluorescent light box (Kaiser, Germany) and Macro TV Zoom lens 18-108 mm f2,5 (Olympus, Japan) attached to a color video camera (Model DXC- 1 51 Sony, Japan). […] Quantitation of lesion area is performed using image analysis software (Java, Jandel Video Analysis, Jandel Scientific, Calif.). […]

[3] = 50 mg/kg/day, administered from day 0 (prevention phase), vs vehicle alone

SMILES: C[n+]1c2cc(N)ccc2cc2ccc(N)cc21.[Cl-] [MS 01500618, acriflavinium hydrochloride]
- stimulation of the PTH-rP promoter assay (PTH-rP promoter): about 8 fold

SMILES: C(=NNc1nnn[nH]1)c1ccccc1 [OSW3, 5-benzylidene hydrazino-1,2,34-tetrazole]
- PTH-rP concentrations [1, 3]: able to lower
- whole blood calcium concentrations [1, 3]: able to lower whole blood calcium concentrations
- whole blood calcium concentrations ([1]; 50 mg/kg/day, after hypercalcemia is evident (treatment phase), vs vehicle alone): able to lower whole blood calcium concentrations
- lesion area of osteolytic metastases [2]: able to significantly lower
- lesion number of osteolytic metastases [2]: able to significantly lower

SMILES: Nc1nc2nc[nH]c2c(=S)[nH]1 [OSW6, 6-thioguanine]
- whole blood calcium concentrations ([1]; 10 mg/kg/day, administered from day 0 (prevention phase), vs vehicle alone): able to significantly lower whole blood calcium concentrations
- whole blood calcium concentrations ([1]; 10 mg/kg/day, after hypercalcemia is evident (treatment phase), vs vehicle alone): able to lower whole blood calcium concentrations
- size of the tumor ([1]; hypercalcemic mice treated (treatment phase)): reduced
